Laboratory results: patent publication US20260138959A1, “QUINAZOLINE DERIVATIVE COMPOUND AND USE THEREOF” (VORONOI INC., priority 2021, published 2026)

What was measured:
human PDGFR-β(wt) = molecular target: T1, human PDGFR-β(wt) (Homo sapiens, UniProt P09619); test: Enzyme inhibitory activity, ADP-Glo kinase assay, PDGFR-β(wt); format: biochemical; conditions: read-out: PDGFR-β (IC50 class)
T1 construct: purchased Signalchem P13-11G
Experimental: In order to evaluate the inhibitory activity of the compounds synthesized according to the above examples on PDGFR-α(wt), PDGFR-β(wt), c-KIT(wt), and c-KIT(D816V) kinases, the following method was performed. The compounds of examples were reacted with purified human PDGFR-α(wt) (Signalchem #P12-18G) enzyme, human PDGFR-β(wt) (Signalchem #P13-11G) enzyme, human c-KIT(wt) (Signalchem #K06-11BG) enzyme, human c-KIT(D816V) (Signalchem #C06-12LG) enzyme, and the enzyme inhibitory abilities were evaluated by the following method.
The reaction buffer was used as a composition of 40 mM Tris-HCl pH7.4, 20 mM MgCl2, 0.5 mg/ml BSA, 50 μM DTT, and the reactions of all the tests were carried out on the reaction buffer. The compound was diluted in 12 steps using a serial dilution method from a 10 mM DMSO stock, and the enzyme activity was measured at a final compound concentration of 10˜0.00005645 μM. During the test, the enzyme activity was confirmed using in vitro ADP-Glo™ kinase assay (Promega) after reacting with the proper concentration of human PDGFR-α(wt) enzyme, human PDGFR-β(wt), human c-KIT(wt) enzyme, and human c-KIT(D816V) enzyme with purified ATP and enzyme substrate at 25° C. for 1˜2 hours. At a ratio of 2:2:1, an enzyme-active reaction solution, an ADP-Glo reaction solution, and an enzyme-active detection solution were reacted to measure the inhibition of the enzyme's activity with luminoscence. Based on the […] of the enzyme activity of the solvent control that was not treated with the compound, the degree of enzyme activity inhibition was calculated according to the treatment concentration of each compound, and the concentration of each compound that inhibits 50% of enzyme activity was determined as IC50 (nM) value and the value was obtained by using GraphPad Prism 8.3.0 (GraphPad software Inc., San Diego) software. (A: IC50≤50 nM; B: 50 nM<IC50≤100 nM; C: 100 nM<IC50≤500 nM; D: IC50>500 nM).

Ba/F3-c-KIT(D816V) = test: Proliferation inhibitory activity on Ba/F3 cell (CellTiter-Glo, 72 hours), c-KIT(D816V); format: cell-based; conditions: Mus musculus, BaF3, read-out: Ba/F3 (nM) c-KIT (D816V) (GI50 class)
Outline: (§1)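 Read-out: CellTiter-Glo after 72 h at 37 °C compound exposure, expressed as percent of vehicle-treated cells, GI50 calculated. Engineered Ba/F3 cells (3×10^3/well) received twelve 3-fold serial dilutions, final 0.00005–10 μM.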

c-KIT V560G/D816V = test: Proliferation inhibitory activity on Ba/F3 cell (CellTiter-Glo, 72 hours), c-KIT V560G/D816V; format: cell-based; conditions: Mus musculus, BaF3, c-KIT V560G/D816V cells, read-out: Cell (nM) c-KIT V560G/D816V (GI50 class)
Outline: as §1

Ba/F3-TEL-PDGFβ(WT) = test: Proliferation inhibitory activity on Ba/F3 cell (CellTiter-Glo, 72 hours), PDGFR-β; format: cell-based; conditions: Mus musculus, BaF3, read-out: Ba/F3 (nM) Tel-PDGFRβ (GI50 class)
Experimental: Ba/F3-TEL-PDGFRα(WT), Ba/F3-TEL-PDGFβ(WT), Ba/F3-c-KIT(D816V) (Kyinno, #KC-0138), c-KIT V560G/D816V, c-KIT D814Y were seeded at 3×10^3/100 μl/well in a clear bottom white 96-well plate. A culture solution containing compounds of 12 concentrations (0.00001-2 mM) serially diluted in 3 folds and the DMSO control group was added at 0.5 μl/well each to a final concentration of 0.00005-10 μM, and then incubated in a CO2 incubator at 37° C. for 72 hours. After 72 hours, the plate treated with the compound was taken out, CellTiter-Glo® Assay (Promega) solution was treated with 100 μl/well, followed by mixing well. After mixing well for about 10 minutes at room temperature, […] was measured using a microplate reader. The data were presented as percentages in proportion to treated cells based on the vehicle, GI50 (nM) values were calculated using GraphPad Prism 8.3.0 (GraphPad software Inc., San Diego).
The inhibitory activities of Ba/F3 expressing PDGFR-α, PDGFR-β, c-KIT(D816V), c-KIT V560G/D816V, and c-KIT D814Y measured as described above were measured and shown in Table 7 below (A: GI50≤200 nM; B: 200 nM<GI50≤500 nM; C: GI50>500 nM).

T1 sequence (P09619 33-1106): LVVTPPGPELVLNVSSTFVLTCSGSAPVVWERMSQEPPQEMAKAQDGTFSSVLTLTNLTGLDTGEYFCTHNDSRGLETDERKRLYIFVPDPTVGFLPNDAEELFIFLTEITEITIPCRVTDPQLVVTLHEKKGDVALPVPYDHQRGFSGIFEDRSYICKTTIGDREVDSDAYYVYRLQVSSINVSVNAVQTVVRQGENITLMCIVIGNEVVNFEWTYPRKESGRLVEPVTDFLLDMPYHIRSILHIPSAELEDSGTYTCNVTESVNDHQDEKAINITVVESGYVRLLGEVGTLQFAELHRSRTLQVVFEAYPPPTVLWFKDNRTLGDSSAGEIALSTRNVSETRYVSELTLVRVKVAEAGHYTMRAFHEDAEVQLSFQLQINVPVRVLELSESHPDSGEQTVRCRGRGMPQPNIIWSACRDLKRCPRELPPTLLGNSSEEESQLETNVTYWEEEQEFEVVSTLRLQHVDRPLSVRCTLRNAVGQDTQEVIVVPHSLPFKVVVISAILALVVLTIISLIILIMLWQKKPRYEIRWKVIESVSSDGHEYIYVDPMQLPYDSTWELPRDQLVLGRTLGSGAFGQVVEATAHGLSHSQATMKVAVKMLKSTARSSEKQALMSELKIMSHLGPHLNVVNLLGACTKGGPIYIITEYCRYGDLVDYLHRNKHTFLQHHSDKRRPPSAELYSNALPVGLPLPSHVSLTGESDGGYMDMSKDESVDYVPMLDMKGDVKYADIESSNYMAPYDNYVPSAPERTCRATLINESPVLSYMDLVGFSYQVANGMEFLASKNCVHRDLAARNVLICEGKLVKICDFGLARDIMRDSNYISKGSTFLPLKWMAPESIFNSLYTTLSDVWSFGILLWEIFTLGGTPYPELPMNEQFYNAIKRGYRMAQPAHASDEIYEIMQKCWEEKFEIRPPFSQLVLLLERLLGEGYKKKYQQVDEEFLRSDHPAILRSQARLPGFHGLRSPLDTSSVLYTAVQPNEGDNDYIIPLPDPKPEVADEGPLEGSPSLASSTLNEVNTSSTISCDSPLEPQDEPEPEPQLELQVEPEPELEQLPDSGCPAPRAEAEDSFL

Structure (SMILES) | IC50 (human PDGFR-β(wt)) | GI50 (Ba/F3-c-KIT(D816V)) | GI50 (c-KIT V560G/D816V) | GI50 (Ba/F3-TEL-PDGFβ(WT))
COc1cc2c(-c3ccc(NC(=O)Cc4ccc(C(F)(F)F)cc4)cc3)ncnc2cc1OCCCN1C2CC1CN(C)C2 [Example 37, N-(4-(6-methoxy-7-(3-(3-methyl-3,6-diazabicyclo[3.1.1]heptane-6-yl)propoxy)quinazolin-4-yl)phenyl)-2-(4-(trifluoromethyl)phenyl)acetamide] | ≤ 50 nM | ≤ 200 nM | ≤ 200 nM | 
COc1cc2c(-c3ccc(NC(=O)C(C)c4ccco4)cc3)ncnc2cc1OCCCN1CCN(C)CC1 (stereo not drawn) [Example 48, 2-(furan-2-yl)-N-(4-(6-methoxy-7-(3-(4-methylpiperazin-1-yl)propoxy)quinazolin-4-yl)phenyl)propanamide] | ≤ 50 nM |  |  | ≤ 200 nM
COc1cc2c(-c3ccc(NC(=O)Cc4ccc(C(F)(F)F)cc4)c(C)c3)ncnc2cc1OCCCN1CCN(C)CC1 [Example 49, N-(4-(6-methoxy-7-(3-(4-methylpiperazin-1-yl)propoxy)quinazolin-4-yl)-2-methylphenyl)-2-(4-(trifluoromethyl)phenyl)acetamide] | ≤ 50 nM |  |  | ≤ 200 nM
COc1cc2c(-c3ccc(NC(=O)Cc4ccc(C(F)(F)F)cc4)c(F)c3)ncnc2cc1OCCCN1CCN(C)CC1 [Example 50, N-(2-fluoro-4-(6-methoxy-7-(3-(4-methylpiperazin-1-yl)propoxy)quinazolin-4-yl)phenyl)-2-(4-(trifluoromethyl)phenyl)acetamide] | ≤ 50 nM |  |  | ≤ 200 nM
COc1cc2c(-c3ccc(NC(=O)Cc4cscn4)cc3)ncnc2cc1OCCCN1CCN(C)CC1 [Example 51, N-(4-(6-methoxy-7-(3-(4-methylpiperazin-1-yl)propoxy)quinazolin-4-yl)phenyl)-2-(thiazole-4-yl)acetamide] | ≤ 50 nM |  |  | ≤ 200 nM
COCCN1CCC(COc2cc3ncnc(-c4ccc(NC(=O)Cc5ccc6c(c5)OCO6)c(F)c4)c3cc2OC)CC1 [Example 52, 2-(benzo[d][1,3]dioxol-5-yl)-N-(2-fluoro-4-(6-methoxy-7-((1-(2-methoxyethyl)piperidin-4-yl)methoxy)quinazolin-4-yl)phenyl)acetamide] |  |  |  | ≤ 200 nM
COCCN1CCC(COc2cc3ncnc(-c4ccc(NC(=O)Cc5ccc6c(c5)OCO6)c(C)c4)c3cc2OC)CC1 [Example 53, 2-(benzo[d][1,3]dioxol-5-yl)-N-(4-(6-methoxy-7-((1-(2-methoxyethyl)piperidin-4-yl)methoxy)quinazolin-4-yl)-2-methylphenyl)acetamide] |  |  |  | ≤ 200 nM
COc1cc2c(-c3ccc(NC(=O)Cc4ccc5c(c4)OCO5)cc3)ncnc2cc1OCCCN1CCN(C)CC1 [Example 54, 2-(benzo[d][1,3]dioxol-5-yl)-N-(4-(6-methoxy-7-(3-(4-methylpiperazin-1-yl)propoxy)quinazolin-4-yl)phenyl)acetamide] | ≤ 50 nM |  |  | ≤ 200 nM
CCN1CCC(COc2cc3ncnc(-c4ccc(NC(=O)Cc5ccc(C(F)(F)F)nc5)cc4)c3cc2OC)CC1 [Example 63, N-(4-(7-((1-ethylpiperidin-4-yl)methoxy)-6-methoxyquinazolin-4-yl)phenyl)-2-(6-(trifluoromethyl)pyridin-3-yl)acetamide] | ≤ 50 nM | ≤ 200 nM | ≤ 200 nM | 
CCN1CCC(COc2cc3ncnc(-c4ccc(NC(=O)Cc5cccc(C(F)(F)F)c5)cc4)c3cc2OC)CC1 [Example 64, N-(4-(7-((1-ethylpiperidin-4-yl)methoxy)-6-methoxyquinazolin-4-yl)phenyl)-2-(3-(trifluoromethyl)phenyl)acetamide] | ≤ 50 nM | ≤ 200 nM | ≤ 200 nM | 
CCN1CCC(COc2cc3ncnc(-c4ccc(NC(=O)Cc5ccc(Cl)nc5)cc4)c3cc2OC)CC1 [Example 70, 2-(6-chloropyridin-3-yl)-N-(4-(7-((1-ethylpiperidin-4-yl)methoxy)-6-methoxyquinazolin-4-yl)phenyl)acetamide] | ≤ 50 nM | ≤ 200 nM | ≤ 200 nM | 
CCN1CCC[C@@H](COc2cc3ncnc(-c4ccc(NC(=O)Cc5ccc(C(F)(F)F)cc5)cc4)c3cc2OC)C1 [Example 74, (R)-N-(4-(7-((1-ethylpiperidin-3-yl)methoxy)-6-methoxyquinazolin-4-yl)phenyl)-2-(4-(trifluoromethyl)phenyl)acetamide] | ≤ 50 nM | ≤ 200 nM | ≤ 200 nM | 
COc1cc2c(-c3ccc(NC(=O)Cc4ccc(C(F)(F)F)cc4)cc3)ncnc2cc1OC[C@H]1CCCNC1 [Example 75, (S)-N-(4-(6-methoxy-7-(piperidin-3-ylmethoxy)quinazolin-4-yl)phenyl)-2-(4-(trifluoromethyl)phenyl)acetamide] | ≤ 50 nM | ≤ 200 nM | ≤ 200 nM | 
CCN1CCC[C@H](COc2cc3ncnc(-c4ccc(NC(=O)Cc5ccc(C(F)(F)F)cc5)cc4)c3cc2OC)C1 [Example 76, (S)-N-(4-(7-((1-ethylpiperidin-3-yl)methoxy)-6-methoxyquinazolin-4-yl)phenyl)-2-(4-(trifluoromethyl)phenyl)acetamide] | ≤ 50 nM | ≤ 200 nM | ≤ 200 nM | 
COc1ccc(CC(=O)Nc2ccc(-c3ncnc4cc(OCCCN5CCN(C)CC5)c(OC)cc34)cc2)cn1 [Example 81, N-(4-(6-methoxy-7-(3-(4-methylpiperazin-1-yl)propoxy)quinazolin-4-yl)phenyl)-2-(6-methoxypyridin-3-yl)acetamide] | ≤ 50 nM | ≤ 200 nM | ≤ 200 nM | 
COc1cc2c(-c3ccc(NC(=O)Cc4ccc(Cl)c(C(F)(F)F)c4)cc3)ncnc2cc1OCCCN1CCN(C)CC1 [Example 82, 2-(4-chloro-3-(trifluoromethyl)phenyl)-N-(4-(6-methoxy-7-(3-(4-methylpiperazin-1-yl)propoxy)quinazolin-4-yl)phenyl)acetamide] | ≤ 50 nM | ≤ 200 nM | ≤ 200 nM | 
COCCOc1cc2ncnc(-c3ccc(NC(=O)Cc4ccc(C(F)(F)F)nc4)cc3)c2cc1OC [Example 118, N-(4-(6-methoxy-7-(2-methoxyethoxy)quinazolin-4-yl)phenyl)-2-(6-(trifluoromethyl)pyridin-3-yl)acetamide] |  |  | ≤ 200 nM | ≤ 200 nM
COc1cc2ncnc(-c3ccc(NC(=O)Cc4ccc(C(F)(F)F)cc4)cc3)c2cc1OCCCN1CCOCC1 [Example 129, N-(4-(7-methoxy-6-(3-morpholinopropoxy)quinazolin-4-yl)phenyl)-2-(4-(trifluoromethyl)phenyl)acetamide] | ≤ 50 nM | ≤ 200 nM | 200 to 500 nM | 
COc1cc2ncnc(-c3ccc(NC(=O)Cc4ccc(C(F)(F)F)cc4)cc3)c2cc1OC(=O)N1CCN(C)CC1 [Example 132, 7-methoxy-4-(4-(2-(4-(trifluoromethyl)phenyl)acetamido)phenyl)quinazolin-6-yl 4-methylpiperazin-1-carboxylate] |  | ≤ 200 nM | > 500 nM | ≤ 200 nM
COc1cc2c(-c3ccc(NC(=O)Nc4cccc(C(F)(F)F)c4)cc3)ncnc2cc1OCCCN1CCN(C)CC1 [Example 169] |  |  |  | ≤ 200 nM
